# Source: PMC11845477, “Exploring the principles behind antibiotics with limited resistance” (Nature Communications, 2025)
# What was measured:
# [1] = tested on: E. coli ATCC 25922 (SEN) and E. coli NCTC13846 (MDR); assay: Adaptive laboratory evolution (ALE), relative MIC of evolved lines; type: cell-based, Escherichia coli; settings: for Relative MIC (log10): EC-SEN (Escherichia coli ATCC 25922)
# Method in brief: (§1)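 Ten parallel populations per antibiotic–ancestor pair were evolved in MHB at 37 °C, starting near 50% growth-inhibiting drug. Every 72 h they were passaged into 0.5–2.5× increasing concentrations, keeping the highest-drug well with OD600 > 0.2.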
# [2] = tested on: K. pneumoniae ATCC 10031 (SEN) and K. pneumoniae ATCC 700603 (MDR); assay: as above; type: cell-based, Klebsiella pneumoniae; settings: for Relative MIC (log10): KP-SEN (Klebsiella pneumoniae ATCC 10031); for MIC of evolved line: KP-SEN (K. pneumoniae ATCC 10031)
# Method in brief: as §1
molecule,measurement,setting,value
C[C@@H]1CN2c3c(cc4c(N5C(=O)OC[C@@H]5C)noc4c3F)CC3(C(=O)NC(=O)NC3=O)[C@H]2[C@H](C)O1 [Zoliflodacin],Relative MIC,"[1]; EC-SEN (E. coli ATCC 25922), evolved line 1 vs ancestor",64
same,Relative MIC,"[1]; EC-SEN (E. coli ATCC 25922), evolved line 2 vs ancestor",8
same,Relative MIC,"[1]; EC-SEN (E. coli ATCC 25922), evolved line 3 vs ancestor",128
same,Relative MIC,"[1]; EC-SEN (E. coli ATCC 25922), evolved line 4 vs ancestor",128
same,Relative MIC,"[1]; EC-SEN (E. coli ATCC 25922), evolved line 5 vs ancestor",256
same,Relative MIC,"[1]; EC-SEN (E. coli ATCC 25922), evolved line 6 vs ancestor",32
same,Relative MIC,"[1]; EC-SEN (E. coli ATCC 25922), evolved line 7 vs ancestor",64
same,Relative MIC,"[1]; EC-SEN (E. coli ATCC 25922), evolved line 8 vs ancestor",128
same,Relative MIC,"[1]; EC-SEN (E. coli ATCC 25922), evolved line 9 vs ancestor",64
same,Relative MIC,"[1]; EC-SEN (E. coli ATCC 25922), evolved line 10 vs ancestor",128
same,Relative MIC (log10),[1]; evolved line 3,2.107 log10
same,Relative MIC (log10),[1]; evolved line 4,2.107 log10
same,Relative MIC (log10),[1]; evolved line 5,2.408 log10
same,Relative MIC (log10),[1]; evolved line 8,2.107 log10
same,Relative MIC (log10),[1]; evolved line 10,2.107 log10
same,Relative MIC,"[1]; Escherichia coli ATCC 25922 (EC-SEN), evolved line 1",64
same,Relative MIC,"[1]; Escherichia coli ATCC 25922 (EC-SEN), evolved line 2",8
same,Relative MIC,"[1]; Escherichia coli ATCC 25922 (EC-SEN), evolved line 3",128
same,Relative MIC,"[1]; Escherichia coli ATCC 25922 (EC-SEN), evolved line 4",128
same,Relative MIC,"[1]; Escherichia coli ATCC 25922 (EC-SEN), evolved line 5",256
same,Relative MIC,"[1]; Escherichia coli ATCC 25922 (EC-SEN), evolved line 6",32
same,Relative MIC,"[1]; Escherichia coli ATCC 25922 (EC-SEN), evolved line 7",64
same,Relative MIC,"[1]; Escherichia coli ATCC 25922 (EC-SEN), evolved line 8",128
same,Relative MIC,"[1]; Escherichia coli ATCC 25922 (EC-SEN), evolved line 9",64
same,Relative MIC,"[1]; Escherichia coli ATCC 25922 (EC-SEN), evolved line 10",128
same,Relative MIC,"[2]; KP-SEN (ATCC 10031), evolved line 1, evolved vs ancestor",1024
same,Relative MIC,"[2]; KP-SEN (ATCC 10031), evolved line 2, evolved vs ancestor",1024
same,Relative MIC,"[2]; KP-SEN (ATCC 10031), evolved line 3, evolved vs ancestor",512
same,Relative MIC,"[2]; KP-SEN (ATCC 10031), evolved line 4, evolved vs ancestor",1024
same,Relative MIC,"[2]; KP-SEN (ATCC 10031), evolved line 5, evolved vs ancestor",1024
same,Relative MIC,"[2]; KP-SEN (ATCC 10031), evolved line 6, evolved vs ancestor",1024
same,Relative MIC,"[2]; KP-SEN (ATCC 10031), evolved line 7, evolved vs ancestor",1024
same,Relative MIC,"[2]; KP-SEN (ATCC 10031), evolved line 8, evolved vs ancestor",1024
same,Relative MIC,"[2]; KP-SEN (ATCC 10031), evolved line 10, evolved vs ancestor",1024
same,Relative MIC (log10),[2]; evolved line 2,3.0103 log10
same,Relative MIC (log10),[2]; evolved line 4,3.0103 log10
same,Relative MIC (log10),[2]; evolved line 6,3.0103 log10
same,Relative MIC (log10),[2]; evolved line 8,3.0103 log10
same,Relative MIC (log10),[2]; evolved line 10,3.0103 log10
same,Relative MIC,"[2]; Klebsiella pneumoniae ATCC 10031 (KP-SEN), evolved line 1",1024
same,Relative MIC,"[2]; Klebsiella pneumoniae ATCC 10031 (KP-SEN), evolved line 2",1024
same,Relative MIC,"[2]; Klebsiella pneumoniae ATCC 10031 (KP-SEN), evolved line 3",512
same,Relative MIC,"[2]; Klebsiella pneumoniae ATCC 10031 (KP-SEN), evolved line 4",1024
same,Relative MIC,"[2]; Klebsiella pneumoniae ATCC 10031 (KP-SEN), evolved line 5",1024
same,Relative MIC,"[2]; Klebsiella pneumoniae ATCC 10031 (KP-SEN), evolved line 6",1024
same,Relative MIC,"[2]; Klebsiella pneumoniae ATCC 10031 (KP-SEN), evolved line 7",1024
same,Relative MIC,"[2]; Klebsiella pneumoniae ATCC 10031 (KP-SEN), evolved line 8",1024
same,Relative MIC,"[2]; Klebsiella pneumoniae ATCC 10031 (KP-SEN), evolved line 10",1024
POL7306,Relative MIC,"[1]; ALE, Escherichia coli ATCC 25922 (EC-SEN), evolved line 1",2
same,Relative MIC,"[1]; ALE, Escherichia coli ATCC 25922 (EC-SEN), evolved line 2",8
same,Relative MIC,"[1]; ALE, Escherichia coli ATCC 25922 (EC-SEN), evolved line 3",4
same,Relative MIC,"[1]; ALE, Escherichia coli ATCC 25922 (EC-SEN), evolved line 4",4
same,Relative MIC,"[1]; ALE, Escherichia coli ATCC 25922 (EC-SEN), evolved line 5",4
same,Relative MIC,"[1]; ALE, Escherichia coli ATCC 25922 (EC-SEN), evolved line 6",4
same,Relative MIC,"[1]; ALE, Escherichia coli ATCC 25922 (EC-SEN), evolved line 7",4
same,Relative MIC,"[1]; ALE, Escherichia coli ATCC 25922 (EC-SEN), evolved line 8",8
same,Relative MIC,"[1]; ALE, Escherichia coli ATCC 25922 (EC-SEN), evolved line 9",8
same,Relative MIC,"[1]; ALE, Escherichia coli ATCC 25922 (EC-SEN), evolved line 10",4
same,Relative MIC,"[1]; ALE, Escherichia coli NCTC 13846 (EC-MDR), evolved line 1",2
same,Relative MIC,"[1]; ALE, Escherichia coli NCTC 13846 (EC-MDR), evolved line 2",1
same,Relative MIC,"[1]; ALE, Escherichia coli NCTC 13846 (EC-MDR), evolved line 3",1
same,Relative MIC,"[1]; ALE, Escherichia coli NCTC 13846 (EC-MDR), evolved line 4",1
same,Relative MIC,"[1]; ALE, Escherichia coli NCTC 13846 (EC-MDR), evolved line 5",1
same,Relative MIC,"[1]; ALE, Escherichia coli NCTC 13846 (EC-MDR), evolved line 6",2
same,Relative MIC,"[1]; ALE, Escherichia coli NCTC 13846 (EC-MDR), evolved line 7",2
same,Relative MIC,"[1]; ALE, Escherichia coli NCTC 13846 (EC-MDR), evolved line 8",4
same,Relative MIC,"[1]; ALE, Escherichia coli NCTC 13846 (EC-MDR), evolved line 9",1
same,Relative MIC,"[1]; ALE, Escherichia coli NCTC 13846 (EC-MDR), evolved line 10",1
same,Relative MIC,"[2]; ALE, Klebsiella pneumoniae ATCC 10031 (KP-SEN), evolved line 1",1
same,Relative MIC,"[2]; ALE, Klebsiella pneumoniae ATCC 10031 (KP-SEN), evolved line 4",32
same,Relative MIC,"[2]; ALE, Klebsiella pneumoniae ATCC 10031 (KP-SEN), evolved line 7",1
same,Relative MIC,"[2]; ALE, Klebsiella pneumoniae ATCC 10031 (KP-SEN), evolved line 8",32
same,Relative MIC,"[2]; ALE, Klebsiella pneumoniae ATCC 10031 (KP-SEN), evolved line 10",64
same,Relative MIC,"[2]; ALE, Klebsiella pneumoniae ATCC 700603 (KP-MDR), evolved line 1",16
same,Relative MIC,"[2]; ALE, Klebsiella pneumoniae ATCC 700603 (KP-MDR), evolved line 2",256
same,Relative MIC,"[2]; ALE, Klebsiella pneumoniae ATCC 700603 (KP-MDR), evolved line 3",256
same,Relative MIC,"[2]; ALE, Klebsiella pneumoniae ATCC 700603 (KP-MDR), evolved line 4",256
same,Relative MIC,"[2]; ALE, Klebsiella pneumoniae ATCC 700603 (KP-MDR), evolved line 5",256
same,Relative MIC,"[2]; ALE, Klebsiella pneumoniae ATCC 700603 (KP-MDR), evolved line 6",256
same,Relative MIC,"[2]; ALE, Klebsiella pneumoniae ATCC 700603 (KP-MDR), evolved line 8",256
same,Relative MIC,"[2]; ALE, Klebsiella pneumoniae ATCC 700603 (KP-MDR), evolved line 10",16
Tridecaptin M152-P3,MIC of evolved line,"[1]; EC-SEN (E. coli ATCC 25922), evolved line 1 of the given antibiotic",32 mg/L
same,MIC of evolved line,"[1]; EC-SEN (E. coli ATCC 25922), evolved line 2 of the given antibiotic",64 mg/L
same,MIC of evolved line,"[1]; EC-SEN (E. coli ATCC 25922), evolved line 3 of the given antibiotic",32 mg/L
same,MIC of evolved line,"[1]; EC-SEN (E. coli ATCC 25922), evolved line 4 of the given antibiotic",32 mg/L
same,MIC of evolved line,"[1]; EC-SEN (E. coli ATCC 25922), evolved line 6 of the given antibiotic",32 mg/L
same,MIC of evolved line,"[1]; EC-SEN (E. coli ATCC 25922), evolved line 7 of the given antibiotic",32 mg/L
same,MIC of evolved line,"[1]; EC-SEN (E. coli ATCC 25922), evolved line 8 of the given antibiotic",32 mg/L
same,MIC of evolved line,"[1]; EC-SEN (E. coli ATCC 25922), evolved line 9 of the given antibiotic",32 mg/L
same,MIC of evolved line,"[1]; EC-SEN (E. coli ATCC 25922), evolved line 10 of the given antibiotic",64 mg/L
same,MIC of evolved line,[2]; evolved line 2 of the given antibiotic,32 mg/L
same,MIC of evolved line,[2]; evolved line 4 of the given antibiotic,8 mg/L
same,MIC of evolved line,[2]; evolved line 5 of the given antibiotic,64 mg/L
same,MIC of evolved line,[2]; evolved line 6 of the given antibiotic,64 mg/L
same,MIC of evolved line,[2]; evolved line 7 of the given antibiotic,64 mg/L
same,MIC of evolved line,[2]; evolved line 8 of the given antibiotic,4 mg/L
